Source: US9931324B2, “Indolizine derivatives and their use in neurodegenerative diseases” (Merck Patent GmbH, priority 2014, dated 2018)

Key:
P2X7 [1] = target: T1, P2X7 (Homo sapiens, UniProt Q99572); assay: Pore permeation assay (YO PRO dye uptake, BzATP-induced); format: cell-based; design: expressed in transfected cells; host or cells: HEK293; conditions: HEK293 transfected with human P2X7 receptor, BzATP 10 uM, read-out: hP2X7 IC50
T1 sequence (Q99572 1-595): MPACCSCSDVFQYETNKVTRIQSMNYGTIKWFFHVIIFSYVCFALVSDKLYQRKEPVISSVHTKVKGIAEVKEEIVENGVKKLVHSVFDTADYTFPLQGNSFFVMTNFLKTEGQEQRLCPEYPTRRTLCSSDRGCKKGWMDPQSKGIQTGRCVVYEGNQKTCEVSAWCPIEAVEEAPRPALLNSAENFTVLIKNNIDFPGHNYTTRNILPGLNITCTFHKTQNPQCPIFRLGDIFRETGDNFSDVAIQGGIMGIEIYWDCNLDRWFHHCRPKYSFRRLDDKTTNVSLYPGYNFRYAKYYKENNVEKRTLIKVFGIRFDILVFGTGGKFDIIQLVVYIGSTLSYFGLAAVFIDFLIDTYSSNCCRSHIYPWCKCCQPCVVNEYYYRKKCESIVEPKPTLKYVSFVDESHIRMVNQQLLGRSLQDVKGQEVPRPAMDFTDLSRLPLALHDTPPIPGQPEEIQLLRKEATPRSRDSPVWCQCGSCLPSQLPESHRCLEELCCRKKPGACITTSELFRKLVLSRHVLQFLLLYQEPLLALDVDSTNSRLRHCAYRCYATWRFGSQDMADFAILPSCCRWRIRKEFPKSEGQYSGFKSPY
Experimental: Agonist-induced pore formation was determined by measuring cellular uptake of YO PRO fluorescence dye in HEK293 transfected with human P2X7 receptor. A HEK293 cell over expressing human P2X7 was harvested using HQTase reagent to detach the cells from T75 cm flask. The harvested cells are centrifuged @1200 rpm for 5 min at room temperature. The viability of cells was determined by Trypan blue dye and the cells are plated @10,000 cell/well in 50 ul volume in a 384W BD Poly lysine coated plate and incubated overnight at 37 C. After overnight incubation, the culture medium was replaced with 35 ul/well assay buffer (5 mM KCl, 0.1 mM CaCl2, 5 mM Glucose, 10 mM HEPES buffer pH7.4 containing 125 mM NaCl. The serial dilution of compounds was performed using Bravo liquid handling instrument and the compounds were added using Bravo to the cell assay plate starting at 2.5 uM with three dilutions for 10 points. The positive control inhibitor compound was added to column 23. The plate was shaken slowly on a plate shaker for 10 seconds. The cells were incubated with the compound for 20 minutes at room temperature. After the incubation period, YO PRO dye (1 uM) along with BzATP (10 uM) were added to cells at 10 ul/well. The plate was centrifuged at 1000 rpm for 5 seconds and incubated at room temperature for 30 minutes. The uptake of YO PRO dye into the cells was measured using Envision Fluorescence plate reader instrument (Perkin Elmer).

P2X7 [2] = target: T1, P2X7; assay: IL-1β release assay in THP-1 cells (sandwich ELISA, BzATP-stimulated); format: cell-based; design: endogenous in cells; host or cells: THP-1 cells (PMA-differentiated, LPS-primed); conditions: LPS primed, 0.8 mM BzATP, mature IL-1β release, read-out: hTHP-1/IL-ib IC50
Experimental: IL-1β release assay: The activation of P2X7 by ATP leads to a fast transient activation of cells resulting in influx of Ca^2+ followed by conversion of pro-IL-1β to active IL-1β. The functional activity of P2X7 compounds was measured by the release of mature IL-1β in the culture medium of THP-1 cells, detected by sandwich ELISA. Cells were maintained in complete growth medium (RPMI 1640+10% HI-FCS+2 mM L-glutamine+1× PS). […] THP-1 cells were harvested from the flask in 50 ml by centrifugation for 3 min at 100 g. The cells were resuspended to 2×10^5 cells/ml in medium supplemented with 0.5 μM PMA and incubated. The cells were washed and resuspended to 1.5×10^5 cells/ml in medium complemented with 10 ng/ml LPS, and the cells were primed for 4 h at 37° C., 5% CO2. After addition of 20 μL of prediluted test compounds, blank, standard and control reagents, cells were incubated for a further 20 min at 37° C. and stimulated with 0.8 mM BzATP for 30 minutes. The cells were centrifuged, supernatant was collected and the presence of mature IL-1β was detected using Dual human IL-1b kit following manufacturer's instruction. The tetrahydrobenzodiazepine analogs effectively modulated the activity of P2X7 in the cells as measured by the levels of pro-inflammatory cytokine IL-1β, which is released by the activation of P2X7 receptor.

Structure (SMILES)	IC50 (P2X7 [1]) [nM]	IC50 (P2X7 [2]) [nM]
COCCc1cc(C(=O)NCC2CCCCC2)c2c(Cl)cccn12 [Compound 8, 8-chloro-N-(cyclohexylmethyl)-3-(2-methoxyethyl)-indolizine-1-carboxamide]	10 to 100	101 to 500
COCCc1cc(C(=O)NCC2(O)CCCC(C)(C)C2)c2c(Cl)cccn12 (stereo not drawn) [Compound 10, 8-chloro-N-((1-hydroxy-3,3-dimethylcyclohexyl)methyl)-3-(2-methoxyethyl) indolizine-1-carboxamide]	10 to 100	10 to 100
COCCc1cc(C(=O)NCC2CC(C)CC(F)(F)C2)c2c(Cl)cccn12 (stereo not drawn) [Compound 13, 8-chloro-N-((3,3-difluoro-5-methylcyclohexyl)methyl)-3-(2-methoxyethyl)indolizine-1-carboxamide]	10 to 100	10 to 100
COCCc1cc(C(=O)NC[C@@]2(O)CCC[C@@H](C)C2)c2c(C)cccn12 [Compound 16, 3-(2-Methoxy-ethyl)-8-methyl-indolizine-1-carboxylic Acid ((1R,3R)-1-hydroxy-3-methylcyclohexylmethyl)-amide]	10 to 100	101 to 500
COCCc1cc(C(=O)NC[C@@]2(O)CCC[C@@H](C)C2)c2c(Cl)cccn12 [Compound 18]	10 to 100	10 to 100
COCCc1cc(C(=O)NC[C@@]2(O)CCC[C@@H](C)C2)c2c(C(F)(F)F)cccn12 [Compound 22, 3-(2-Methoxy-ethyl)-8-trifluoromethyl-indolizine-1-carboxylic Acid ((1R,3R)-1-hydroxy-3-methyl-cyclohexylmethyl)-amide]	10 to 100	10 to 100

Now from value to compound:

IC50 (P2X7 [1]) [nM]	IC50 (P2X7 [2]) [nM]	Structure (SMILES)
10 to 100	101 to 500	O=C(NCC1CCC(F)(F)CC1)c1cc(C2CCC2)n2cccc(Cl)c12 [Compound 5, 8-chloro-3-cyclobutyl-N-((4,4-difluorocyclohexyl)methyl)indolizine-1-carboxamide]
10 to 100	10 to 100	O=C(NCC1CCCCCC1)c1cc(CCO)n2cccc(Cl)c12 [Compound 6, 8-chloro-N-(cycloheptylmethyl)-3-(2-hydroxyethyl)indolizine-1-Carboxamide]
101 to 500	101 to 500	O=C(NCC1CCC(F)(F)CC1)c1cc(I)n2cccc(Cl)c12 [Compound 9]
< 10	10 to 100	COCCc1cc(C(=O)NCC2CCC(F)(F)C(C)C2)c2c(Cl)cccn12 (stereo not drawn) [Compound 11, 8-chloro-N-((4,4-difluoro-3-methylcyclohexyl)methyl)-3-(2-methoxyethyl) indolizine-1-carboxamide]
10 to 100	101 to 500	O=C(NCC1(O)CCC(F)(F)CC1)c1cc(C2CCC2)n2cccc(Cl)c12 [Compound 12, 8-chloro-3-cyclobutyl-N-((4,4-difluoro-1-hydroxycyclohexyl)methyl) indolizine-1-carboxamide]
10 to 100	10 to 100	O=C(NCC1CCC(F)(F)CC1)c1cc(C2=COCC2)n2cccc(Cl)c12 [Compound 14, 8-chloro-N-((4,4-difluorocyclohexyl)methyl)-3-(4,5-dihydrofuran-3-yl)indolizine-1-carboxamide]
101 to 500	101 to 500	O=C(NCC1CCCCC1)c1cc(CCO)n2cccc(Cl)c12 [Compound 15, 8-chloro-N-(cyclohexylmethyl)-3-(2-hydroxyethyl)indolizine-1-carboxamide]
< 10	10 to 100	O=C(NCC1CCCC(F)(F)C1)c1cc(C2CCCO2)n2cccc(Cl)c12 (stereo not drawn) [Compound 17, 8-Chloro-3-(tetrahydro-furan-2-yl)-indolizine-1-carboxylic Acid (3,3-difluoro-cyclohexylmethyl)-amide]
101 to 500	101 to 500	O=C(NCC1CCC(F)(F)CC1)c1cc(C2=CCOC2)n2cccc(Cl)c12 [Compound 21, 8-chloro-N-((4,4-difluorocyclohexyl)methyl)-3-(2,5-dihydrofuran-3-yl) indolizine-1-carboxamide]
